Results from ChEMBL document CHEMBL3526075, “Metabolism of the active metabolite of quetiapine, N-desalkylquetiapine in vitro” (Drug Metab Dispos, 2012).
Each block holds one compound with its values, some of them ahead of it.

What was measured:
Assay type in all cases: ADME
Liver microsome [1] = assay: Drug metabolism in human liver microsomes treated with N-desalkylquetiapine at 3 uM after 30 mins by mass spectroscopy in presence of CYP2C9 inhibitor sulfaphenazole; conditions: 0.5 h
Liver microsome [2] = assay: Drug metabolism in human liver microsomes treated with N-desalkylquetiapine at 3 uM after 30 mins by mass spectroscopy in presence of CYP3A4 inhibitor ketoconazole; conditions: 0.5 h
Liver microsome [3] = assay: Retention time in human liver microsomes after 30 to 60 mins by mass spectroscopy
Liver microsome [4] = assay: Drug metabolism in human liver microsomes treated with N-desalkylquetiapine at 3 uM after 30 mins by mass spectroscopy in presence of CYP2D6 inhibitor quinidine; conditions: 0.5 h
Liver microsome [5] = assay: Drug metabolism in human liver microsomes treated with N-desalkylquetiapine at 3 uM after 30 mins by mass spectroscopy in presence of CYP2C19 inhibitor benzylnirvanol; conditions: 0.5 h
Liver microsome [6] = assay: Drug metabolism in human liver microsomes treated with N-desalkylquetiapine at 3 uM after 30 mins by mass spectroscopy; conditions: 0.5 h
Liver microsome [7] = assay: Drug metabolism in human liver microsomes treated with N-desalkylquetiapine at 3 uM after 30 mins by mass spectroscopy in presence of CYP1A2 inhibitor fluvoxamine; conditions: 0.5 h
[8] = Activity of cytochrome P450 in human liver microsomes assessed as N-desalkylquetiapine sulfoxide formation measured as low-affinity/high-capacity binding constant by LC-MS analysis
Cytochrome P450 3A4 [9] = molecular target: T1, Cytochrome P450 3A4 (Homo sapiens, UniProt P08684); assay: Activity of human CYP3A4 expressed in supersomes co-expressing cytochrome P450 reductase assessed as metabolite M3 formation after 60 mins by LC-MS analysis; conditions: recombinant enzyme, 1 h
Liver microsome [10] = assay: Drug metabolism in human liver microsomes assessed as 7-hydroxy-N-desalkylquetiapine formation at 3 uM after 30 mins by mass spectroscopy in presence of CYP2C9 inhibitor sulfaphenazole; conditions: 0.5 h
Liver microsome [11] = assay: Drug metabolism in human liver microsomes assessed as N-desalkylquetiapine sulfoxide formation at 3 uM after 30 mins by mass spectroscopy in presence of CYP3A4 inhibitor ketoconazole; conditions: 0.5 h
Liver microsome [12] = assay: Drug metabolism in human liver microsomes assessed as N-desalkylquetiapine sulfoxide formation at 3 uM after 30 mins by mass spectroscopy in presence of CYP2C9 inhibitor sulfaphenazole; conditions: 0.5 h
Liver microsome [13] = assay: Drug metabolism in human liver microsomes assessed as N-desalkylquetiapine sulfoxide formation at 3 uM after 30 mins by mass spectroscopy; conditions: 0.5 h
[14] = Activity of cytochrome P450 in human liver microsomes assessed as metabolite M3 formation by LC-MS analysis
Cytochrome P450 3A4 [15] = molecular target: T1, Cytochrome P450 3A4; assay: Activity of human CYP3A4 expressed in supersomes co-expressing cytochrome P450 reductase assessed as N-desalkylquetiapine sulfoxide formation after 60 mins by LC-MS analysis; conditions: recombinant enzyme, 1 h
Liver microsome [16] = assay: Drug metabolism in human liver microsomes assessed as 7-hydroxy-N-desalkylquetiapine formation at 3 uM after 30 mins by mass spectroscopy in presence of CYP2D6 inhibitor quinidine; conditions: 0.5 h
Liver microsome [17] = assay: Drug metabolism in human liver microsomes assessed as N-desalkylquetiapine sulfoxide formation at 3 uM after 30 mins by mass spectroscopy in presence of CYP2C19 inhibitor benzylnirvanol; conditions: 0.5 h
[18] = Activity of cytochrome P450 in human liver microsomes assessed as N-desalkylquetiapine sulfoxide formation measured as high-affinity/low-capacity binding constant by LC-MS analysis
Liver microsome [19] = assay: Drug metabolism in human liver microsomes assessed as 7-hydroxy-N-desalkylquetiapine formation at 3 uM after 30 mins by mass spectroscopy; conditions: 0.5 h
Liver microsome [20] = assay: Drug metabolism in human liver microsomes assessed as 7-hydroxy-N-desalkylquetiapine formation at 3 uM after 30 mins by mass spectroscopy in presence of CYP2C19 inhibitor benzylnirvanol; conditions: 0.5 h
CYP2D6 = CYP2D6 (Homo sapiens, UniProt P10635); assay: Activity of human CYP2D6 expressed in supersomes co-expressing cytochrome P450 reductase assessed as substrate depletion after 60 mins by LC-MS analysis; conditions: read-out: Drug metabolism
Cytochrome P450 3A4 [21] = molecular target: T1, Cytochrome P450 3A4; assay: Activity of human CYP3A4 expressed in xenosomes assessed as intrinsic clearance per pmol protein by LC-MS analysis
Cytochrome P450 2D6 [22] = molecular target: T2, Cytochrome P450 2D6 (Homo sapiens, UniProt P10635); assay: Activity of human CYP2D6 expressed in supersomes co-expressing cytochrome P450 reductase assessed as intrinsic clearance per pmol protein by LC-MS analysis; conditions: recombinant enzyme
cytochrome P450 = assay: Activity of cytochrome P450 in human liver microsomes by LC-MS analysis
Liver microsome [23] = assay: Drug metabolism in human liver microsomes assessed as 7-hydroxy-N-desalkylquetiapine formation at 3 uM after 30 mins by mass spectroscopy in presence of CYP1A2 inhibitor fluvoxamine; conditions: 0.5 h
CYP3A4 = CYP3A4 (Homo sapiens, UniProt P08684); assay: Activity of human CYP3A4 expressed in xenosomes assessed as substrate depletion after 60 mins by LC-MS analysis; conditions: recombinant CYP3A4 expressed in xenosomes, read-out: Drug metabolism
Cytochrome P450 2D6 [24] = molecular target: T2, Cytochrome P450 2D6; assay: Activity of human CYP2D6 expressed in supersomes co-expressing cytochrome P450 reductase assessed as 7-hydroxy-N-desalkylquetiapine formation after 60 mins by LC-MS analysis; conditions: recombinant enzyme, 1 h
[25] = Activity of cytochrome P450 in human liver microsomes assessed as 7-hydroxy-N-desalkylquetiapine formation measured as substrate inhibition constant by LC-MS analysis
Cytochrome P450 2D6 [26] = molecular target: T2, Cytochrome P450 2D6; assay: Activity of human CYP2D6 expressed in supersomes co-expressing cytochrome P450 reductase assessed as metabolite M3 formation after 60 mins by LC-MS analysis; conditions: recombinant enzyme, 1 h
Cytochrome P450 2D6 [27] = molecular target: T2, Cytochrome P450 2D6; assay: Activity of human CYP2D6 expressed in supersomes co-expressing cytochrome P450 reductase assessed as N-desalkylquetiapine sulfoxide formation after 60 mins by LC-MS analysis; conditions: recombinant enzyme, 1 h

T2 sequence (P10635 whole entry): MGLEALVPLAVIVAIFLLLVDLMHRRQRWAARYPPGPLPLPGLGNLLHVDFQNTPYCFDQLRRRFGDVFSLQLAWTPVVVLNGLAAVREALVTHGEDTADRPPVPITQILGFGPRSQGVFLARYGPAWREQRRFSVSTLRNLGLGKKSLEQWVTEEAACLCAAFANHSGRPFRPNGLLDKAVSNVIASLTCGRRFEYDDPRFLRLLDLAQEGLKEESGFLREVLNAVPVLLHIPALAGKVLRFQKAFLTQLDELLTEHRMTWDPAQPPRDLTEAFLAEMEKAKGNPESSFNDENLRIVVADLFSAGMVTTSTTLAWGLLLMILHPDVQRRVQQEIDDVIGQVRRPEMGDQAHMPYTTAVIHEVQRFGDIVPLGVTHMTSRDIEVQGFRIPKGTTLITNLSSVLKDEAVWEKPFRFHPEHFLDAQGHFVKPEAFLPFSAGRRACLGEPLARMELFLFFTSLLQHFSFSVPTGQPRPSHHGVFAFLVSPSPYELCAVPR
T1 sequence (P08684 whole entry): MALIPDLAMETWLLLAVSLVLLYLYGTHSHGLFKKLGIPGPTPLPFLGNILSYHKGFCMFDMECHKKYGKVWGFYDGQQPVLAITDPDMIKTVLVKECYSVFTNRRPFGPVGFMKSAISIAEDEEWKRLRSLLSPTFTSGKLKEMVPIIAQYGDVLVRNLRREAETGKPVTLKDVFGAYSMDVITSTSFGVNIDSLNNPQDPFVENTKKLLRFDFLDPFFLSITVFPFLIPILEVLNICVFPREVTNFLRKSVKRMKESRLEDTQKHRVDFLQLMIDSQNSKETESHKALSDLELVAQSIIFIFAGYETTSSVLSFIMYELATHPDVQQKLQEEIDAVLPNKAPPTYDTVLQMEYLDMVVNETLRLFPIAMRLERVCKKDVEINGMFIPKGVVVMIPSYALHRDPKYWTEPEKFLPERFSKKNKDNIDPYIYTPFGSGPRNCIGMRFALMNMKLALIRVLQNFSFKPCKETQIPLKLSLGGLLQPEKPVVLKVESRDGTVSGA
CYP2D6, sequence (P10635 whole entry): as the sequence (P10635 whole entry) above
CYP3A4, sequence (P08684 whole entry): as the sequence (P08684 whole entry) above

Drug metabolism (Liver microsome [1]): metabolite_detected
Drug metabolism (Liver microsome [2]): metabolite_not_detected
Retention_time (Liver microsome [3]): 4.31 min
Drug metabolism (Liver microsome [4]): metabolite_not_detected
Drug metabolism (Liver microsome [5]): metabolite_detected
Drug metabolism (Liver microsome [6]): metabolite_detected
Drug metabolism (Liver microsome [7]): metabolite_detected
Structure (SMILES): Oc1ccc2c(c1)Sc1ccccc1C(N1CCNCC1)=N2

Drug metabolism (Liver microsome [1]): metabolite_detected
Drug metabolism (Liver microsome [2]): metabolite_not_detected
Retention_time (Liver microsome [3]): 3.98 min
Drug metabolism (Liver microsome [4]): metabolite_not_detected
Drug metabolism (Liver microsome [5]): metabolite_detected
Drug metabolism (Liver microsome [6]): metabolite_detected
Drug metabolism (Liver microsome [7]): metabolite_detected
Structure (SMILES): [O-][S+]1c2ccccc2N=C(N2CCNCC2)c2ccccc21 (configuration not stated)

Km [8]: 459 µM
Drug metabolism (Cytochrome P450 3A4 [9]): metabolite_detected
Drug metabolism (Liver microsome [10]): metabolite_detected
Drug metabolism (Liver microsome [11]): metabolite_not_detected
Drug metabolism (Liver microsome [12]): metabolite_detected
Drug metabolism (Liver microsome [13]): metabolite_detected
Km [14]: 199 µM
Drug metabolism (Cytochrome P450 3A4 [15]): metabolite_detected
Drug metabolism (Liver microsome [16]): metabolite_not_detected
Drug metabolism (Liver microsome [17]): metabolite_detected
Km [18]: 15 µM
Drug metabolism (Liver microsome [19]): metabolite_detected
Drug metabolism (Liver microsome [20]): metabolite_detected
metabolised at 1 h (CYP2D6): 47%
CL (Cytochrome P450 3A4 [21]): 0.25 µL/min
CL (Cytochrome P450 2D6 [22]): 3 µL/min
Km (cytochrome P450): 110 µM
Drug metabolism (Liver microsome [23]): metabolite_detected
metabolised at 1 h (CYP3A4): 6%
Drug metabolism (Cytochrome P450 2D6 [24]): metabolite_detected
Kis [25]: 824 µM
Drug metabolism (Cytochrome P450 2D6 [26]): metabolite_detected
Drug metabolism (Cytochrome P450 2D6 [27]): metabolite_detected
Structure (SMILES): c1ccc2c(c1)N=C(N1CCNCC1)c1ccccc1S2
